Measurements published in patent publication US20230248731A1, “COMPOSITION AND MEDICAMENT OF PALBOCICLIB ISETHIONATE” (NANJING GRITPHARMA CO., LTD., priority 2020, published 2023).

Legend:
[1] = background statement; cited from earlier work
[2] = Pharmacokinetics of palbociclib isethionate after single oral administration in 125 mg (Pfizer study 1036); type: in vivo, human; settings: single oral 125 mg
Experimental: Existing clinical tests have also shown that the palbociclib isethionate has different bioavailability values before or after a meal. Pharmacokinetics of the palbociclib isethionate in healthy subjects after single administration were evaluated by Pfizer Pharmaceutical, an original research company. Different effects are achieved when the medicine is taken before or after a meal. Compared with administration before a meal, administration after a meal has the advantages that the Cmax value is increased by 7%, and the AUCinf value is increased by about 9%. The food prolongs the retention time of the medicine in the gastric juice, so that the bioavailability is improved. The basic reason is that as the pH environment in the stomach and intestines is different, the palbociclib isethionate has inconsistent dissolution and release conditions, resulting in different bioavailability values. Therefore, when the dissolution of the palbociclib isethionate can be improved under neutral and weakly alkaline conditions, great benefits will be brought to application of the palbociclib isethionate to the treatment of related diseases in the human body.

[3] = Solubility of palbociclib isethionate at different pH values; type: physicochemical
Excerpt: First, the applicant has studied the solubility of palbociclib isethionate in water, a hydrochloric acid solution with a pH of 1.0, a phosphate buffer with a pH of 6.8 and an acetate buffer with a pH of 4.5 (as shown in Table 3). […] However, the palbociclib isethionate enters the intestinal tract rapidly on an empty stomach, and the pH environment becomes neutral and weakly alkaline. As the solubility of the palbociclib isethionate is extremely low at a pH of 6.8, absorption of the palbociclib isethionate will be affected by the solubility, which is extremely unfavorable to the absorption and utilization of the palbociclib isethionate.

Question: For `CC(=O)c1c(C)c2cnc(Nc3ccc(N4CCNCC4)cn3)nc2n(C2CCCC2)c1=O` [palbociclib in a free alkali form, palbociclib], which “Solubility in water (in words)” value [1] is on record?
Answer: poor solubility in water

Question: With `CC(=O)c1c(C)c2cnc(Nc3ccc(N4CCNCC4)cn3)nc2n(C2CCCC2)c1=O.O=S(=O)(O)CCO` [palbociclib isethionate] as the compound, how does the “Increase of AUCinf, administration after a meal compared with before a meal” value [2] read?
Answer: about 9%

Question: What about the “Increase of Cmax, administration after a meal compared with before a meal” value [2] of the same compound?
Answer: 7%

Question: And the Solubility ([3]; acetate buffer pH 4.5)?
Answer: 84.7 mg/mL

Question: And the Solubility ([3]; hydrochloric acid solution pH 1.0)?
Answer: 90.7 mg/mL

Question: And the “Solubility (in words)” value ([3]; pH 6.8)?
Answer: extremely low

Question: What about the Solubility ([3]; phosphate buffer pH 6.8) of the same compound?
Answer: 0.04 mg/mL

Question: What about the Solubility ([3]; water) of the same compound?
Answer: 84.8 mg/mL
